# Where two headings read alike, the source gives them in different places.
# What was measured:
# CYPRO = assay: Example II: in-water applied herbicidal mixtures, weed control in transplanted paddy rice (greenhouse), CYPRO; format: in vivo, Cyperus rotundus (purple nutsedge); settings: for Visual Weed Control (%) - 20 DAA CYPRO Obs / Visual Weed Control (%) - 21 DAA CYPRO Obs / Visual Weed Control (%) - 22 DAA CYPRO Obs: in-water application
# Method: (§1) The prepared mud was dispensed in 365 mL aliquots into 16-ounce (oz.) non-perforated plastic pots with a surface area of 86.59 square centimeters (cm^2) leaving a headspace of 3 centimeters (cm) in each pot Mud was allowed to dry overnight prior to planting or transplanting. Rice seeds were planted in Sun Gro MetroMix® 306 planting mixture, which typically has a pH of 6.0 to 6.8 and an organic matter content of about 30 percent, in plastic plug trays. Seedlings at the second or third leaf stage of growth were transplanted into 840 mL of mud contained in 32-oz. non-perforated plastic pots with a surface area of 86.59 cm^2 4 days prior to herbicide application. […] Nutrients were added as Osmocote® (19:6:12, N:P:K^+ minor nutrients) at 2 g per 16-oz. pot and 4 g per 32-oz. pot.
# (§2) Applications were made by injecting with a pipetter appropriate amounts of the application solutions, individually and sequentially, into the aqueous layer of the paddy. Control plants were treated in the same manner with the solvent blank. Applications were made so that all treated plant material received the same concentrations of acetone and crop oil concentrate.
# LEFCH [1] = assay: Example II: in-water applied herbicidal mixtures, transplanted paddy rice, LEFCH; format: in vivo, Leptochloa chinensis (Chinese sprangletop)
# Procedure, shortened: (§3)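 Greenhouse paddy pots of dried mud; rice seedlings at the second or third leaf stage were transplanted into mud 4 days before treatment. Osmocote 19:6:12 supplied nutrients. Solutions were pipetted individually and sequentially into the paddy water, with equal acetone and crop oil concentrate across treatments; controls got solvent blank.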
# LEFCH [2] = assay: Example I: postemergence foliar-applied herbicidal mixtures, direct seeded rice, LEFCH; format: in vivo, Leptochloa chinensis (Chinese sprangletop)
# Method: (§4) The soil matrix was contained in plastic pots with a volume of 1 quart and a surface area of 83.6 square centimeters (cm^2). […] The plants were grown for 8-22 days in a greenhouse with an approximate 14 h photoperiod which was maintained at about 29° C. during the day and 26° C. during the night. Nutrients (Peters Excel® 15-5-15 5-Ca 2-Mg and iron chelate) were applied in the irrigation solution as needed and water was added on a regular basis. Supplemental lighting was provided with overhead metal halide 1000-Watt lamps as necessary. The plants were employed for testing when they reached the first through fourth true leaf stage.
# (§5) Treatments consisted of the acid or esters of 4-amino-3-chloro-5-fluoro-6-(4-chloro-2-fluoro-3-methoxy-phenyl)pyridine-2-carboxylic acid (Compound A), each formulated as an SC (suspension concentrate), and various herbicidal components alone and in combination. Forms of compound A were applied on an acid equivalent basis.
# (§6) For treatments comprised of formulated compounds, measured amounts of compounds were placed individually in 25 mL glass vials and diluted in a volume of 1.25% (v/v) Agri-Dex® crop oil concentrated to obtain 12× stock solutions. […] Application solutions were prepared by adding an appropriate amount of each stock solution (e.g., 1 mL) and diluted to the appropriate final concentrations with the addition of 10 mL of an aqueous mixture of 1.25% (v/v) crop oil concentrate so that the final spray solutions contained 1.25+/−0.05% (v/v) crop oil concentrate.
# (§7) All stock solutions and applications solutions were visually inspected for compound compatibility prior to application. Spray solutions were applied to the plant material with an overhead Mandel track sprayer equipped with a 8002E nozzles calibrated to deliver 187 L/ha over an application area of 0.503 m^2 at a spray height of 18 to 20 inches (46 to 50 cm) above average plant canopy height. Control plants were sprayed in the same manner with the solvent blank.
# (§8) The treated plants and control plants were placed in a greenhouse as described above and watered by sub-irrigation to prevent wash-off of the test compounds. After approximately 3 weeks, the condition of the test plants as compared with that of the untreated plants was determined visually and scored on a scale of 0 to 100 percent where 0 corresponds to no injury or growth inhibition and 100 corresponds to complete kill.
# (§9) Colby's equation was used to determine the herbicidal effects expected from the mixtures (Colby, S. R. 1967. Calculation of the synergistic and antagonistic response of herbicide combinations. Weeds 15:20-22).
# (§10) The following equation was used to calculate the expected activity of mixtures containing two active ingredients, A and B: Expected=A+B−(A×B/100)
# (§11) A=observed efficacy of active ingredient A at the same concentration as used in the mixture.
# (§12) B=observed efficacy of active ingredient B at the same concentration as used in the mixture.
# DIGSA = assay: Example I: postemergence foliar-applied herbicidal mixtures, direct seeded rice, DIGSA; settings: 21.2 gae/ha
# Method: as §4, §5, §6, §7, §8, §9, §10, §11, §12
# SCPMA = assay: Example II: in-water applied herbicidal mixtures, transplanted paddy rice, SCPMA; format: in vivo; settings: for Visual Weed Control (%) - 20 DAA SCPMA Obs: in-water application
# Method: as §1, §2
# ECHCG [3] = assay: Example I: postemergence foliar-applied herbicidal mixtures, direct seeded rice, ECHCG
# Method: as §4, §5, §6, §7, §8, §9, §10, §11, §12
# ECHCO = assay: Example I: postemergence foliar-applied herbicidal mixtures, direct seeded rice, ECHCO
# ECHOR = assay: Example II: in-water applied herbicidal mixtures, transplanted paddy rice, ECHOR; format: in vivo, Echinochloa oryzoides (early watergrass)
# Procedure, shortened: as §3
# CYPIR = assay: Example I: postemergence foliar-applied herbicidal mixtures, direct seeded rice, CYPIR; format: in vivo, Cyperus iria (rice flatsedge); settings: 5.3 gae/ha
# Method: as §4, §5, §6, §7, §8, §9, §10, §11, §12
# ECHCG [4] = assay: Example II: in-water applied herbicidal mixtures, transplanted paddy rice, ECHCG; format: in vivo, Echinochloa crus-galli (barnyardgrass); settings: for Visual Weed Control (%) - 21 DAA ECHCG Obs / Visual Weed Control (%) - 22 DAA ECHCG Obs: in-water application
# Procedure, shortened: as §3
# IPOHE = assay: Example I: postemergence foliar-applied herbicidal mixtures, direct seeded rice, IPOHE; format: in vivo, Ipomoea hederacea (ivyleaf morningglory)
# Method: as §4, §5, §6, §7, §8, §9, §10, §11, §12
# [5] = 8.75 gae/ha, in-water application
# [6] = 17.5 gae/ha, in-water application
# [7] = 35 gae/ha, in-water application
# [8] = 42.4 gae/ha, in-water application
compound,measurement,setting,value
"COc1c(Cl)ccc(-c2nc(C(=O)O)c(Cl)c(N)c2F)c1F [Compound A Acid, 4-amino-3-chloro-6-(4-chloro-2-fluoro-3-methoxyphenyl)-5-fluoropyridine-2-carboxylic acid]",Visual Weed Control (%) - 20 DAA CYPRO Obs,CYPRO; 8.75 gae/ha,0%
same,Visual Weed Control (%) - 21 DAA CYPRO Obs,CYPRO; 8.75 gae/ha,0%
same,Visual Weed Control (%) - 22 DAA CYPRO Obs,CYPRO; 8.75 gae/ha,0%
same,Visual Weed Control (%) - 20 DAA CYPRO Obs,CYPRO; 17.5 gae/ha,70%
same,Visual Weed Control (%) - 21 DAA CYPRO Obs,CYPRO; 17.5 gae/ha,30%
same,Visual Weed Control (%) - 22 DAA CYPRO Obs,CYPRO; 17.5 gae/ha,20%
same,Visual Weed Control (%) Obs,"CYPRO; 20 DAA, 10.6 gae/ha",10%
same,Visual Weed Control (%) Obs,"CYPRO; 20 DAA, 21.2 gae/ha",20%
same,Visual Weed Control (%) Obs,"CYPRO; 22 DAA, 8.75 gae/ha",0%
same,Visual Weed Control (%) Obs,"CYPRO; 22 DAA, 10.6 gae/ha",0%
same,Visual Weed Control (%) Obs,"CYPRO; 22 DAA, 17.5 gae/ha",20%
same,Visual Weed Control (%) Obs,"CYPRO; 22 DAA, 21.2 gae/ha",40%
same,Visual Weed Control (%) Obs,"CYPRO; 22 DAA, 35 gae/ha",50%
same,Visual Weed Control (%) - 21 DAA CYPRO Obs,CYPRO; 35 gae/ha,85%
same,Visual Weed Control (%) - 22 DAA CYPRO Obs,CYPRO; 35 gae/ha,50%
same,Visual Weed Control (%) - 21 DAA LEFCH Obs,LEFCH [1]; [5],0%
same,Visual Weed Control (%) - 25 DAA LEFCH Obs,LEFCH [1]; [5],50%
same,Visual Weed Control (%) - 21 DAA LEFCH Obs,LEFCH [1]; [6],0%
same,Visual Weed Control (%) - 25 DAA LEFCH Obs,LEFCH [1]; [6],50%
same,Visual Weed Control (%) Obs,"LEFCH [1]; 22 DAA, 10.6 gae/ha",20%
same,Visual Weed Control (%) Obs,"LEFCH [1]; 22 DAA, 21.2 gae/ha",40%
same,Visual Weed Control (%) Obs,"LEFCH [1]; 22 DAA, 42.4 gae/ha",60%
same,Visual Weed Control (%) Obs,"LEFCH [1]; 25 DAA, 8.75 gae/ha",50%
same,Visual Weed Control (%) Obs,"LEFCH [1]; 25 DAA, 17.5 gae/ha",50%
same,Visual Weed Control (%) Obs,"LEFCH [1]; 25 DAA, 35 gae/ha",85%
same,Visual Weed Control (%) - 21 DAA LEFCH Obs,LEFCH [1]; [7],30%
same,Visual Weed Control (%) - 25 DAA LEFCH Obs,LEFCH [1]; [7],85%
same,Visual Weed Control (%) - 19 DAA LEFCH Obs,LEFCH [1]; [8],10%
same,Visual Weed Control (%) - 20 DAA LEFCH Obs,LEFCH [2]; 4.38 gae/ha,0%
same,Visual Weed Control (%) - 20 DAA LEFCH Obs,LEFCH [2]; 5.3 gae/ha,10%
same,Visual Weed Control (%) - 20 DAA LEFCH Obs,LEFCH [2]; 8.75 gae/ha,0%
same,Visual Weed Control (%) - 20 DAA LEFCH Obs,LEFCH [2]; 17.5 gae/ha,10%
same,Visual Weed Control (%) - 19 DAA LEFCH Obs,LEFCH [2]; 19.4 gae/ha,5%
same,Visual Weed Control (%) - 21 DAA DIGSA Obs,DIGSA,10%
same,Visual Weed Control (%) - 20 DAA SCPMA Obs,SCPMA; 8.75 gae/ha,0%
same,Visual Weed Control (%) - 20 DAA SCPMA Obs,SCPMA; 17.5 gae/ha,0%
same,Visual Weed Control (%) Obs,"SCPMA; 20 DAA, 42.4 gae/ha",0%
same,Visual Weed Control (%) Obs,"SCPMA; 20 DAA, 84.8 gae/ha",0%
same,Visual Weed Control (%) Obs,"SCPMA; 21 DAA, 42.4 gae/ha",0%
same,Visual Weed Control (%) Obs,"SCPMA; 22 DAA, 8.75 gae/ha",0%
same,Visual Weed Control (%) Obs,"SCPMA; 22 DAA, 16 gae/ha",0%
same,Visual Weed Control (%) Obs,"SCPMA; 22 DAA, 17.5 gae/ha",0%
same,Visual Weed Control (%) Obs,"SCPMA; 22 DAA, 32 gae/ha",0%
same,Visual Weed Control (%) Obs,"SCPMA; 22 DAA, 35 gae/ha",0%
same,Visual Weed Control (%) Obs,"SCPMA; 22 DAA, 64 gae/ha",30%
same,Visual Weed Control (%) - 20 DAA SCPMA Obs,SCPMA; 35 gae/ha,0%
same,Visual Weed Control (%) - 21 DAA ECHCG Obs,ECHCG [3]; 4.38 gae/ha,15%
same,Visual Weed Control (%) - 21 DAA ECHCG Obs,ECHCG [3]; 8.75 gae/ha,50%
same,Visual Weed Control (%) - 19 DAA ECHCG Obs,ECHCG [3]; 19.4 gae/ha,80%
same,Visual Weed Control (%) - 21 DAA ECHCO Obs,ECHCO; 4.38 gae/ha,70%
same,Visual Weed Control (%) - 21 DAA ECHCO Obs,ECHCO; 8.75 gae/ha,75%
same,Visual Weed Control (%) - 20 DAA ECHOR Obs,ECHOR; [5],10%
same,Visual Weed Control (%) - 21 DAA ECHOR Obs,ECHOR; [5],10%
same,Visual Weed Control (%) - 22 DAA ECHOR Obs,ECHOR; [5],0%
same,Visual Weed Control (%) - 25 DAA ECHOR Obs,ECHOR; [5],0%
same,Visual Weed Control (%) - 20 DAA ECHOR Obs,ECHOR; [6],25%
same,Visual Weed Control (%) - 21 DAA ECHOR Obs,ECHOR; [6],15%
same,Visual Weed Control (%) - 22 DAA ECHOR Obs,ECHOR; [6],0%
same,Visual Weed Control (%) - 25 DAA ECHOR Obs,ECHOR; [6],0%
same,Visual Weed Control (%) - 20 DAA ECHOR Obs,ECHOR; [7],25%
same,Visual Weed Control (%) - 21 DAA ECHOR Obs,ECHOR; [7],20%
same,Visual Weed Control (%) - 22 DAA ECHOR Obs,ECHOR; [7],20%
same,Visual Weed Control (%) - 25 DAA ECHOR Obs,ECHOR; [7],40%
same,Visual Weed Control (%) - 19 DAA ECHOR Obs,ECHOR; [8],15%
same,pest or weed control at 42.4 g/ha,"ECHOR; Echinochloa oryzoides, 456 h, 19 DAA, 42.4 gae/ha, read-out: Visual Weed Control (%) Obs",15%
same,pest or weed control at 21.2 g/ha,"ECHOR; Echinochloa oryzoides, 480 h, 20 DAA, 21.2 gae/ha, read-out: Visual Weed Control (%) Obs",30%
same,pest or weed control at 84.8 g/ha,"ECHOR; Echinochloa oryzoides, 480 h, 20 DAA, 84.8 gae/ha, read-out: Visual Weed Control (%) Obs",33%
same,pest or weed control at 8.75 g/ha,"ECHOR; Echinochloa oryzoides, 504 h, 21 DAA, 8.75 gae/ha, read-out: Visual Weed Control (%) Obs",0%
same,pest or weed control at 17.5 g/ha,"ECHOR; Echinochloa oryzoides, 504 h, 21 DAA, 17.5 gae/ha, read-out: Visual Weed Control (%) Obs",0%
same,pest or weed control at 35 g/ha,"ECHOR; Echinochloa oryzoides, 504 h, 21 DAA, 35 gae/ha, read-out: Visual Weed Control (%) Obs",20%
same,pest or weed control at 42.4 g/ha,"ECHOR; Echinochloa oryzoides, 504 h, 21 DAA, 42.4 gae/ha, read-out: Visual Weed Control (%) Obs",15%
same,pest or weed control at 8.75 g/ha,"ECHOR; Echinochloa oryzoides, 528 h, 22 DAA, 8.75 gae/ha, read-out: Visual Weed Control (%) Obs",0%
same,pest or weed control at 17.5 g/ha,"ECHOR; Echinochloa oryzoides, 528 h, 22 DAA, 17.5 gae/ha, read-out: Visual Weed Control (%) Obs",0%
same,pest or weed control at 35 g/ha,"ECHOR; Echinochloa oryzoides, 528 h, 22 DAA, 35 gae/ha, read-out: Visual Weed Control (%) Obs",20%
same,pest or weed control at 8.75 g/ha,"ECHOR; Echinochloa oryzoides, 600 h, 25 DAA, 8.75 gae/ha, read-out: Visual Weed Control (%) Obs",0%
same,pest or weed control at 17.5 g/ha,"ECHOR; Echinochloa oryzoides, 600 h, 25 DAA, 17.5 gae/ha, read-out: Visual Weed Control (%) Obs",0%
same,pest or weed control at 35 g/ha,"ECHOR; Echinochloa oryzoides, 600 h, 25 DAA, 35 gae/ha, read-out: Visual Weed Control (%) Obs",40%
same,Visual Weed Control (%) - 20 DAA CYPIR Obs,CYPIR,65%
same,Visual Weed Control (%) - 21 DAA ECHCG Obs,ECHCG [4]; 8.75 gae/ha,0%
same,Visual Weed Control (%) - 22 DAA ECHCG Obs,ECHCG [4]; 8.75 gae/ha,0%
same,Visual Weed Control (%) - 21 DAA ECHCG Obs,ECHCG [4]; 17.5 gae/ha,0%
same,Visual Weed Control (%) - 22 DAA ECHCG Obs,ECHCG [4]; 17.5 gae/ha,20%
same,Visual Weed Control (%) Obs,"ECHCG [4]; 20 DAA, 10.6 gae/ha",20%
same,Visual Weed Control (%) Obs,"ECHCG [4]; 20 DAA, 21.2 gae/ha",20%
same,Visual Weed Control (%) Obs,"ECHCG [4]; 20 DAA, 42.4 gae/ha",50%
same,Visual Weed Control (%) Obs,"ECHCG [4]; 21 DAA, 10.6 gae/ha",0%
same,Visual Weed Control (%) Obs,"ECHCG [4]; 22 DAA, 8.75 gae/ha",0%
same,Visual Weed Control (%) Obs,"ECHCG [4]; 22 DAA, 17.5 gae/ha",20%
same,Visual Weed Control (%) Obs,"ECHCG [4]; 22 DAA, 21.2 gae/ha",25%
same,Visual Weed Control (%) Obs,"ECHCG [4]; 22 DAA, 35 gae/ha",25%
same,Visual Weed Control (%) Obs,"ECHCG [4]; 22 DAA, 42.4 gae/ha",30%
same,Visual Weed Control (%) Obs,"ECHCG [4]; 25 DAA, 8.75 gae/ha",0%
same,Visual Weed Control (%) Obs,"ECHCG [4]; 25 DAA, 17.5 gae/ha",0%
same,Visual Weed Control (%) Obs,"ECHCG [4]; 25 DAA, 35 gae/ha",70%
same,Visual Weed Control (%) - 21 DAA ECHCG Obs,ECHCG [4]; 35 gae/ha,20%
same,Visual Weed Control (%) - 22 DAA ECHCG Obs,ECHCG [4]; 35 gae/ha,25%
same,Visual Weed Control (%) - 20 DAA IPOHE Obs,IPOHE; 4.38 gae/ha,10%
same,Visual Weed Control (%) - 20 DAA IPOHE Obs,IPOHE; 8.75 gae/ha,15%
same,Visual Weed Control (%) - 20 DAA IPOHE Obs,IPOHE; 17.5 gae/ha,30%
